Our source for the IC50 values is ChEMBL document CHEMBL5727717, “ABHD6 and dual ABHD6/MGL inhibitors and their uses” (2020).

Assay [1] has as its target T1, Monoglyceride lipase (Homo sapiens, UniProt Q99685).
T1 sequence (Q99685 whole entry): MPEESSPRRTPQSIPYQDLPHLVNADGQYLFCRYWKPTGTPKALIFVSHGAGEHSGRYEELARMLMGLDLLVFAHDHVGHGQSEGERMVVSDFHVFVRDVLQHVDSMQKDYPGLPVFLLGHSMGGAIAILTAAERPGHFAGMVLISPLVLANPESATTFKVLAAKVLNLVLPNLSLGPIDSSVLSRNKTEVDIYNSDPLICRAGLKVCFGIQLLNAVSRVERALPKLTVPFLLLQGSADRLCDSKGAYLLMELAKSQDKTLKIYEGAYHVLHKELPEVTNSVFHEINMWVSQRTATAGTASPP
Put plainly: This medium throughput assay involved a 96-well plate format in which hMGL activity was monitored by the hydrolysis of the substrate 7-hydroxy-6-methoxy-4-methylcoumarin ester (AHMMCE) to form the fluorescent product, coumarin. […] Upon the addition of AHMMCE, the reaction was incubated at 25° C. for 120 min; fluorescence readings were taken every 15 min at 360 nm/460 nm (λexcitation/λemission) using a Synergy HT Plate Reader (Bio-Tek, Winooski, Vt.). […] External standards were used to convert relative fluorescence units to the amount of 4-methylcoumarin formed.

Assay [2] can be described thus: Fluorescent Assay: hABHD6:Initial Fluorescent Inhibition Assay (3-Point)—In each well of a 96-well plate 8 μL of membrane fraction containing full-length hABHD6 (1 μg total protein) was mixed with 168 μL of assay buffer (50 mM Tris-HCl, pH 7.6), and 20 μL of diluted compound (diluted in a dilution buffer consisting of 50% DMSO/50% assay buffer v/v). Each plate was incubated at RT for 15 minutes before adding 4 μL of 1 mM AHMMCE substrate (final concentration of 20 μM AHMMCE and final volume of 200 μL). The reaction was allowed to proceed for 1 hr at RT before the fluorescence was read at λex 360 nm and λem 460 nm and the inhibition calculated. Each experiment can test 8 compounds at three concentrations (usually 10 μM, 1 μM, and 100 nM).

Each structure is given as a SMILES string. pIC50: −log10 of the molar value.

By pIC50 is commonly meant the negative decadic logarithm of the IC50, by convention in mol/L. Consider `O=C(OC(C(F)(F)F)C(F)(F)F)N1Cc2ccc(N3CCS(=O)(=O)CC3)cc2C1`, for which the pIC50 in assay [1] is less than 6.00. Take `O=C(OC(C(F)(F)F)C(F)(F)F)N1CCC2(CC(OC(c3ccc(F)cc3)c3ccc(F)cc3)C2)C1` (configuration not stated): in assay [2], the pIC50 was less than 6.00.
